Assay: Inhibition of rabbit hind leg tissue microsomes ATPase activity of SERCA assessed as ATP hydrolysis
Parameters: species or system Oryctolagus cuniculus

| IC50 | SMILES |
| --- | --- |
| 28.3 µM | CC(c1ccc(O)cc1)C(C)c1ccc(O)cc1 (centres undefined) |
| 9.4 µM | Oc1cc(Cc2ccccc2)c(O)cc1Cc1ccccc1 |
| 15 µM | Oc1ccc2ccccc2c1Cc1c(O)ccc2ccccc12 |
| 28.1 µM | CC(C)(C)c1cc2c(cc1O)CCC2 |
| 39.3 µM | CCC(C)(c1ccc(O)c(C)c1)c1ccc(O)c(C)c1 |
| 33.8 µM | CC(c1ccccc1)c1cc(C(C)(C)C)cc(C(C)(C)C)c1O (centres undefined) |
| 0.4 µM | CC(C)(C)c1cc(O)c(C(C)(C)C)cc1O |
| 18.8 µM | CC(C)Cc1ccc(CC(C)C)c(O)c1 |
| 11.5 µM | Oc1ccc(O)c(C2CCCCCCC2)c1 |
| 27.3 µM | Oc1ccc2ccccc2c1Cc1cccc2ccccc12 |
| 23.8 µM | Oc1cc(Cc2ccccc2)c(Cc2ccccc2)cc1O |
| 11.8 µM | CC(C)(C)c1ccc(O)c(Cc2cc(C(C)(C)C)ccc2O)c1 |
| 17.2 µM | CC(C)CCCCCCc1ccc(O)cc1 |
| 49.7 µM | CC(c1ccccc1)(c1ccccc1)c1ccc(O)cc1 |
| 35.3 µM | COc1ccc(C(C)c2cc(C(C)(C)C)cc(C(C)(C)C)c2O)cc1 (centres undefined) |
| 45.4 µM | COc1ccc(C(C)c2cc(C(C)(C)C)c(O)c(C(C)(C)C)c2)cc1 (centres undefined) |
| 21.3 µM | CC(C)(C)c1ccc(O)c(C(c2cc(C(C)(C)C)ccc2O)c2cc(C(C)(C)C)ccc2O)c1 |

| SMILES | IC50 |
| --- | --- |
| Cc1cc(C(C)(C)c2cc(C)c(O)c(C)c2)cc(C)c1O | 19.5 µM |
| CC(=O)C1=C(O)[C@@H]2[C@H]3c4c[nH]c5cccc(c45)C[C@H]3C(C)(C)N2C1=O [CYCLOPIAZONIC ACID] | 0.12 µM |

Reference: ChEMBL document CHEMBL1143319, “Structure-based virtual screening for novel inhibitors of the sarco/endoplasmic reticulum calcium ATPase and their experimental evaluation” (Bioorg Med Chem, 2009)
